Test results reported in patent publication US6333422A, “Thermosensitive cyclotriphosphazene-platinum complex conjugate, its preparation method and anticancer agent containing the same” (Korea Institute of Science and Technology, priority 2000, dated 2001).
pIC50: −log10 of the molar value.

Experiments:
[1] = M. J. Cleare, Biochimie 60, 835 (1978); cited from earlier work
[2] = test system: mouse leukemia L1210 cell line; experiment: In vivo (i.p.) activity: survival of BDF1 mice implanted i.p. with leukemia L1210 cells
Experimental: 2. Determination of in vivo (i.p.) activity
(1) Samples: Example 2, Example 6, Example 7 and Example 11
(§1) (2) Cancer cell line: mouse leukemia L1210 cell line
(3) Experimental method: The leukemia L1210 cells(1×10^5 cells/0.1 ml) obtained from DBA/2 donor mice were injected intraperitoneally to the BDF1 mice (6-8 weeks old, 8 mice per group). The samples were either dissolved in PBS solution or suspended in 0.5% Tween 80 depending on their solubility. These sample solutions were administered via intraperitoneal injection once a day for 5 consecutive days or at day 1, 5, and 9 after the cancer cell implantation at variable dosages. The survival rate was determined by observing the mice each day. By comparing with the average survival time of the control group (where no chemical treatment was performed), the percent average increase in the survival time(T/C, %) was calculated to determine the anticancer activity.

[3] = test system: mouse leukemia L1210 cell line; experiment: In vitro cell growth inhibition of mouse leukemia L1210 cells (trypan blue dye exclusion); format: cell-based; conditions: viable cell number after 24, 48 and 72 hours, read-out: ED50 (concentration exhibiting 50% of cell growth inhibition)
Experimental: 1. Determination of in vitro activity
as §1
After adding the samples each serially diluted by logarithmic dose to the cells, cells were cultured in an incubator at 37° C. and under 5% CO2 atmosphere.
The viable cell number was determined after 24, 48 and 72 hours by using trypan blue dye exclusion test.

[4] = Lower critical solution temperature (LCST, cloud point) by UV/VIS spectrophotometer; format: physicochemical
Source text: Thermosensitive polymers in the present invention refer to the polymers that can be solubilized in water at low temperatures but precipitates above a certain critical temperature due to the rapid decrease of their water-solubility. When such a phase transition is reversible, the phase transition temperature is called a lower critical solution temperature(LCST) or a cloud point. Below LCST, the hydrogen bonding between the polymer-water molecules is stronger than the hydrophobic interaction between the polymer-polymer molecules. As the temperature increases, however, the hydrogen bonding between the polymer-water molecules weakens whereas the hydrophobic interaction between the polymer-polymer molecules increases resulting in the precipitation of polymers in aqueous solution.
Elemental analysis of carbon, hydrogen, nitrogen in the compounds of the present invention was performed in the Special Analysis Center at KIST by using carbon, hydrogen and nitrogen analyzer (Perkin Elmer), and phosphorous and platinum analysis was performed using Polyscan 61E ICP. Hydrogen and phosphorous nuclear magnetic resonance spectra were obtained using Varian to Gemini-300, and LCST was measured by using Perkin-Elmer Lamda 18 UV/VIS spectrophotometer.

Compound	pIC50 [3]	Lower critical solution temperatures [4]	other results
N.N.O=C([O-])C1(C(=O)[O-])CCC1.[Pt+2] [Carboplatin, reference compound]	5.23	–	LD50 [1]: 180 mg/kg; T/C (survival time vs control) ([2]; dose 40 mgkg^-1): 168.0%
N.N.[Cl][Pt][Cl] [Cisplatin, reference compound]	6.15	–	T/C (survival time vs control) ([2]; dose 4 mgkg^-1): 163.0%
{NP[(OCH2 CH2)2 OC2 H5 ][L-Asp.Pt(dach)]}3 [Example 7]	6.40	42.0 °C	T/C (survival time vs control) ([2]; dose 40 mgkg^-1): 200.8%; T/C (survival time vs control) ([2]; dose 60 mgkg^-1): 226.7%; T/C (survival time vs control) ([2]; dose 80 mgkg^-1): > 271.7%
{NP[(OCH2 CH2)2 OC2 H5 ][L-Asp.Pt(dmach)]}3 [Example 8]	–	35.0 °C	–
{NP[(OCH2 CH2)2 OC2 H5 ][L-Asp.Pt(dmpda)]}3 [Example 6]	–	46.5 °C	T/C (survival time vs control) ([2]; dose 30 mgkg^-1): 146.1%; T/C (survival time vs control) ([2]; dose 60 mgkg^-1): 162.0%
{NP[(OCH2 CH2)2 OC2 H5 ][L-Mal.Pt(dach)]}3 [Example 5]	–	39.0 °C	–
{NP[(OCH2 CH2)2 OC3 H7 ][L-Asp.Pt(dach)]}3 [Example 9]	–	22.0 °C	–
{NP[(OCH2 CH2)2 OC4 H9 ][L-Asp.Pt(dach)]}3 [Example 10]	–	12.0 °C	–
{NP[(OCH2 CH2)2 OCH3 ][L-Asp.Pt(dach)]}3 [Example 2]	6.40	92.0 °C	T/C (survival time vs control) ([2]; dose 30 mgkg^-1): 217.3%; T/C (survival time vs control) ([2]; dose 60 mgkg^-1): > 293.8%; T/C (survival time vs control) ([2]; dose 90 mgkg^-1): > 511.0%
{NP[(OCH2 CH2)2 OCH3 ][L-Asp.Pt(dmach)]}3 [Example 3]	–	74.5 °C	–
{NP[(OCH2 CH2)2 OCH3 ][L-Asp.Pt(dmpda]}3 [Example 1]	–	98.0 °C	–
{NP[(OCH2 CH2)2 OCH3 ][L-Glu.Pt(dach)]}3 [Example 4]	–	82.0 °C	–
{NP[(OCH2 CH2)7 OCH3 ][L-Asp.Pt(dach)]}3 [Example 11]	6.70	84.0 °C	T/C (survival time vs control) ([2]; dose 30 mgkg^-1): 197.0%; T/C (survival time vs control) ([2]; dose 60 mgkg^-1): 229.2%; T/C (survival time vs control) ([2]; dose 90 mgkg^-1): 204.2%
{NP[(OCH2 CH2)12 OCH3 ][L-Asp.Pt(dach)]}3 [Example 12]	–	above 100 °C	–
